Data set [1] concerns the target SCTR (Homo sapiens, UniProt P47872). The experiment in a line: hSCTR potency, cAMP accumulation in CHO-K1 cells stably overexpressing hSCTR. It is filed as cell-based. Further details: alternatively Euroscreen ES-712-AF; FAST-0161L; host or cells: CHO-K1. To be noted: cAMP accumulation, CHO-K1 cells overexpressing hSCTR; read-out: pEC50 hSCTR (converted). The method, boiled down:
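Thawed CHO-K1 cells carrying stable hSCTR are plated into casein/IBMX buffer (0.05%, 0.5 mM), dosed immediately for 30 min at room temperature, then cAMP is detected by TR-FRET. Purified peptides run as 11 three-fold dilutions in duplicate, and curves are fitted with variable slope.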
(In general: Changes in cAMP serve as a functional read-out for many G protein-coupled receptors.)

Data set [2] in a line: Fibril formation of crude library peptides (Thioflavin T). It is filed as physicochemical. Set-up: key: average ThT fluorescence emission at 480 nm (ex 450 nm), raw units. To be noted: Physical stability of peptides. In short, it runs like this:
(§1)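 Turbidity is the absorbance at 600 nm, taken before heating. Fibril signal is the mean ThT emission at 480 nm (450 nm excitation), read every 10 min over 72 h at 40° C with 700 rpm shaking between reads. Peptides at 267 μM, pH 4.0 acetate or pH 7.0 phosphate buffer (50 mM), 4 μM ThT final.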

The target in data set [3] is GLP1R (Homo sapiens, UniProt P43220). The data set can be described thus: hGLP1R potency, cAMP accumulation in CHO-K1 cells stably overexpressing hGLP1R. It is filed as cell-based. Set-up: host or cells: CHO-K1. To be noted: for Selectivity: SCTR EC50/GLP1R EC50 ratio; for EC50: cAMP accumulation, CHO-K1 cells overexpressing hGLP1R, read-out: pEC50 hGLPR1 (converted). In short, it runs like this:
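2000 cells/well, DPBS + 0.05% casein + 0.5 mM IBMX; 30 min RT stimulation; HTRF cAMP detection after 1 h. Purified: 3-fold ×11, n=2; crude: 10-fold ×5, n=1. EC50 by variable-slope fit.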

A short description of data set [4]: Turbidity of crude library peptides (absorbance at 600 nm). It is filed as physicochemical. To be noted: Physical stability of peptides. The method, boiled down:
as §1

The record followed here is patent publication US20260201008A1, “SECRETIN-DERIVED GLP1R SELECTIVE AGONISTS” (GUBRA A/S, priority 2023, published 2026).

Numbered stars: 1 amine (or outer) side, 2 acyl side, 3 side chain; on linkers, the order of the positions; unused ones are H or OH. Square brackets hold non-standard residues; d marks the D form. Side chains are listed from the residue outwards. Peptide text beside a SMILES is read from it. * marks the point of attachment. C20 diacid = O=C(O)CCCCCCCCCCCCCCCCCCC(=O)*; γGlu = O=C(O)[C@H](CCC(=O)[*:2])N[*:1]; AEEA = NCCOCCOCC(=O)O; Aib = CC(C)(N)C(=O)O

SCTR, sequence (P47872 23-440): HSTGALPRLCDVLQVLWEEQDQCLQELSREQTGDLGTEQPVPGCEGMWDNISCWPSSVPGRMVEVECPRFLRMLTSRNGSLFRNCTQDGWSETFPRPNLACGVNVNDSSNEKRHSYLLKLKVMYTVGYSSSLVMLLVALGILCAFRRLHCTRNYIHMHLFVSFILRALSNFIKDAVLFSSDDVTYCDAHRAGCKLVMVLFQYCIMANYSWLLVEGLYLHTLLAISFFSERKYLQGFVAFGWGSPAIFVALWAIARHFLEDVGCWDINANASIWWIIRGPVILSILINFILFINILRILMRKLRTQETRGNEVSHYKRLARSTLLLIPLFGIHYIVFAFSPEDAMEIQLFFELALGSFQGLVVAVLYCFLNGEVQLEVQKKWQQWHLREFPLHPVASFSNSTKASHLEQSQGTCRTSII
GLP1R, sequence (P43220 24-463): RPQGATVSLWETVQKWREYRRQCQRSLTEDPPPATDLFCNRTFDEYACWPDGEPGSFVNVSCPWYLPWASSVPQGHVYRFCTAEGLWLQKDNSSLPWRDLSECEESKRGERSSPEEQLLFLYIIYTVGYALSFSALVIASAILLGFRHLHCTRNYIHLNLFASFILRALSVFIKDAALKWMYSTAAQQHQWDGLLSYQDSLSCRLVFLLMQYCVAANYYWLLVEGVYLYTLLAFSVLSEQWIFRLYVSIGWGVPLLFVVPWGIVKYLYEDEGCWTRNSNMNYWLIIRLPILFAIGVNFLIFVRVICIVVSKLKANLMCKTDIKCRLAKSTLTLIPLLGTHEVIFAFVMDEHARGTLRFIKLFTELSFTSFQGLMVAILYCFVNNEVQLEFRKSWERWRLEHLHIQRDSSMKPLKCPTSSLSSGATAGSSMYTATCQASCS

`CC(C)C[C@H](NC(=O)[C@H](Cc1ccccc1)NC(=O)[C@H](CCCNC(=N)N)NC(=O)[C@H](CCC(N)=O)NC(=O)[C@H](CCC(=O)O)NC(=O)[C@H](C)NC(=O)[C@H](C)NC(=O)[C@@H](NC(=O)[C@H](CCC(=O)O)NC(=O)[C@H](CCCCNC(=O)COCCOCCNC(=O)COCCOCCNC(=O)CC[C@H](NC(=O)CCCCCCCCCCCCCCCCCCC(=O)O)C(=O)O)NC(=O)[C@H](CC(C)C)NC(=O)[C@H](Cc1ccc(O)cc1)NC(=O)[C@H](CO)NC(=O)[C@@H](NC(=O)[C@H](CC(=O)O)NC(=O)[C@H](CO)NC(=O)[C@@H](NC(=O)[C@H](Cc1ccccc1)NC(=O)[C@@H](NC(=O)CNC(=O)[C@H](CCC(=O)O)NC(=O)C(C)(C)NC(=O)[C@@H](N)Cc1c[nH]cn1)[C@@H](C)O)[C@@H](C)O)C(C)C)[C@@H](C)O)C(=O)N[C@@H](CCC(=O)O)C(=O)N[C@@H](Cc1c[nH]cn1)C(=O)N[C@@H](CC(C)C)C(=O)N[C@H](C(N)=O)C(C)C` [compound 69] (H-H[Aib]EGTFTSDVSYLK([AEEA-AEEA-γGlu-C20 diacid])ETAAEQRFLEHLV-NH2): in data set [1], the EC50 was 15800 nM. In data set [2], this molecule showed a Fibril formation of 14799. Moreover, in data set [3], the Selectivity is reported as 1030149 and the EC50 is 0.0158 nM. For the same molecule, in data set [4], the “Turbidity (pH 7)” value turned out to be 0.08.

In the case of `CC(C)C[C@H](NC(=O)[C@H](Cc1ccccc1)NC(=O)[C@H](CCCNC(=N)N)NC(=O)[C@H](CCC(N)=O)NC(=O)[C@@H](NC(=O)[C@H](C)NC(=O)[C@H](C)NC(=O)[C@@H](NC(=O)[C@H](CCC(=O)O)NC(=O)[C@H](CCCCNC(=O)COCCOCCNC(=O)COCCOCCNC(=O)CC[C@H](NC(=O)CCCCCCCCCCCCCCCCCCC(=O)O)C(=O)O)NC(=O)[C@H](CC(C)C)NC(=O)[C@H](Cc1ccccc1)NC(=O)[C@H](CO)NC(=O)[C@@H](NC(=O)[C@H](CC(=O)O)NC(=O)[C@H](CO)NC(=O)[C@@H](NC(=O)[C@H](Cc1ccccc1)NC(=O)[C@@H](NC(=O)CNC(=O)[C@H](CCC(=O)O)NC(=O)C(C)(C)NC(=O)[C@@H](N)Cc1c[nH]cn1)[C@@H](C)O)[C@@H](C)O)C(C)C)[C@@H](C)O)[C@@H](C)O)C(=O)N[C@@H](CCC(=O)O)C(=O)N[C@@H](Cc1c[nH]cn1)C(=O)N[C@@H](CC(C)C)C(=O)N[C@H](C(N)=O)C(C)C` [compound 70] (H-H[Aib]EGTFTSDVSFLK([AEEA-AEEA-γGlu-C20 diacid])ETAATQRFLEHLV-NH2), the EC50 in data set [1] is 100 nM. Moreover, the Fibril formation in data set [2] is on record as 99118. In addition, in data set [3], the Selectivity stood at 4095 and the EC50 is 0.02 nM. Besides, the “Turbidity (pH 7)” value in data set [4] was 0.11.

Regarding `CC(C)C[C@H](NC(=O)[C@H](Cc1ccccc1)NC(=O)[C@H](CCCNC(=N)N)NC(=O)[C@H](CCC(N)=O)NC(=O)[C@H](CO)NC(=O)[C@H](C)NC(=O)[C@H](C)NC(=O)[C@@H](NC(=O)[C@H](CCC(=O)O)NC(=O)[C@H](CCCCNC(=O)COCCOCCNC(=O)COCCOCCNC(=O)CC[C@H](NC(=O)CCCCCCCCCCCCCCCCCCC(=O)O)C(=O)O)NC(=O)[C@H](CC(C)C)NC(=O)[C@H](CCCNC(=N)N)NC(=O)[C@H](CO)NC(=O)[C@@H](NC(=O)[C@H](CC(=O)O)NC(=O)[C@H](CO)NC(=O)[C@@H](NC(=O)[C@H](Cc1ccccc1)NC(=O)[C@@H](NC(=O)CNC(=O)[C@H](CCC(=O)O)NC(=O)C(C)(C)NC(=O)[C@@H](N)Cc1c[nH]cn1)[C@@H](C)O)[C@@H](C)O)C(C)C)[C@@H](C)O)C(=O)N[C@@H](CCC(=O)O)C(=O)N[C@@H](Cc1c[nH]cn1)C(=O)N[C@@H](CC(C)C)C(=O)N[C@H](C(N)=O)C(C)C` [compound 71] (H-H[Aib]EGTFTSDVSRLK([AEEA-AEEA-γGlu-C20 diacid])ETAASQRFLEHLV-NH2), the EC50 in data set [1] is 1000 nM. This molecule gave a Fibril formation in data set [2] of 231646. Moreover, in data set [3], the Selectivity is given as 13611 and the EC50 was 0.0631 nM. Moreover, the “Turbidity (pH 7)” value in data set [4] is 0.08.

With `CC(C)C[C@H](NC(=O)[C@H](Cc1ccccc1)NC(=O)[C@H](CCCNC(=N)N)NC(=O)[C@H](CCC(N)=O)NC(=O)[C@H](CCC(=O)O)NC(=O)[C@H](C)NC(=O)[C@H](C)NC(=O)[C@H](Cc1ccccc1)NC(=O)[C@H](CCC(=O)O)NC(=O)[C@H](CCCCNC(=O)COCCOCCNC(=O)COCCOCCNC(=O)CC[C@H](NC(=O)CCCCCCCCCCCCCCCCCCC(=O)O)C(=O)O)NC(=O)[C@H](CC(C)C)NC(=O)[C@H](CCCNC(=N)N)NC(=O)[C@H](CO)NC(=O)[C@@H](NC(=O)[C@H](CC(=O)O)NC(=O)[C@H](CO)NC(=O)[C@@H](NC(=O)[C@H](Cc1ccccc1)NC(=O)[C@@H](NC(=O)CNC(=O)[C@H](CCC(=O)O)NC(=O)C(C)(C)NC(=O)[C@@H](N)Cc1c[nH]cn1)[C@@H](C)O)[C@@H](C)O)C(C)C)C(=O)N[C@@H](CCC(=O)O)C(=O)N[C@@H](Cc1c[nH]cn1)C(=O)N[C@@H](CC(C)C)C(=O)N[C@H](C(N)=O)C(C)C` [compound 72] (H-H[Aib]EGTFTSDVSRLK([AEEA-AEEA-γGlu-C20 diacid])EFAAEQRFLEHLV-NH2), in data set [1], the EC50 is 1000 nM. The Fibril formation in data set [2] came out at 96622. Also, in data set [3], the Selectivity is 9251 and the EC50 is 0.1 nM. For the same molecule, the “Turbidity (pH 7)” value in data set [4] was 0.08.

Regarding `CC(C)C[C@H](NC(=O)[C@H](Cc1ccccc1)NC(=O)[C@H](CCCNC(=N)N)NC(=O)[C@H](CCC(N)=O)NC(=O)[C@H](CCC(N)=O)NC(=O)[C@H](C)NC(=O)[C@H](C)NC(=O)[C@H](CCC(=O)O)NC(=O)[C@H](CCC(=O)O)NC(=O)[C@H](CCCCNC(=O)COCCOCCNC(=O)COCCOCCNC(=O)CC[C@H](NC(=O)CCCCCCCCCCCCCCCCCCC(=O)O)C(=O)O)NC(=O)[C@H](CC(C)C)NC(=O)[C@H](CCCNC(=N)N)NC(=O)[C@H](CO)NC(=O)[C@@H](NC(=O)[C@H](CC(=O)O)NC(=O)[C@H](CO)NC(=O)[C@@H](NC(=O)[C@H](Cc1ccccc1)NC(=O)[C@@H](NC(=O)CNC(=O)[C@H](CCC(=O)O)NC(=O)C(C)(C)NC(=O)[C@@H](N)Cc1c[nH]cn1)[C@@H](C)O)[C@@H](C)O)C(C)C)C(=O)N[C@@H](CCC(=O)O)C(=O)N[C@@H](Cc1c[nH]cn1)C(=O)N[C@@H](CC(C)C)C(=O)N[C@H](C(N)=O)C(C)C` [compound 73] (H-H[Aib]EGTFTSDVSRLK([AEEA-AEEA-γGlu-C20 diacid])EEAAQQRFLEHLV-NH2), the figures for the EC50 in data set [1] and in data set [3] were 79.4 nM and 0.00631 nM, respectively. The Fibril formation in data set [2] was found to be 14344. Also, the Selectivity in data set [3] was 10668. Also, the “Turbidity (pH 7)” value in data set [4] worked out at 0.09.
